Data published in PubChem BioAssay (NCI).
Several values for one entry are separate records, joined by “and”; a condition that tells them apart may be missing. Equal values may be shown once.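 Each compound was tested at five concentrations against cells in 96-well plates for 48 hours. GI50: concentration for 50% inhibition of growth. TGI: concentration producing complete growth inhibition.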

What was measured:
Test in all cases: growth of human tumour cells (NCI), 48 h
DU-145 prostate = tested on: DU-145 prostate
OVCAR-8 ovarian = tested on: OVCAR-8 ovarian
IGROV1 ovarian = tested on: IGROV1 ovarian
SN12C renal = tested on: SN12C renal
NCI-H522 lung = tested on: NCI-H522 lung
SK-MEL-2 melanoma = tested on: SK-MEL-2 melanoma
SK-MEL-28 melanoma = tested on: SK-MEL-28 melanoma
HS 578T breast = tested on: HS 578T breast
OVCAR-5 ovarian = tested on: OVCAR-5 ovarian
HOP-62 NSCLC = tested on: HOP-62 NSCLC

Structure (SMILES)	GI50 (DU-145 prostate)	TGI (DU-145 prostate)	GI50 (OVCAR-8 ovarian)	TGI (OVCAR-8 ovarian)	GI50 (IGROV1 ovarian)	TGI (IGROV1 ovarian) [µM]	GI50 (SN12C renal)	TGI (SN12C renal) [µM]	GI50 (NCI-H522 lung)	TGI (NCI-H522 lung)	GI50 (SK-MEL-2 melanoma)	TGI (SK-MEL-2 melanoma)	GI50 (SK-MEL-28 melanoma)	TGI (SK-MEL-28 melanoma)	GI50 (HS 578T breast)	TGI (HS 578T breast)	GI50 (OVCAR-5 ovarian)	TGI (OVCAR-5 ovarian)	GI50 (HOP-62 NSCLC)	TGI (HOP-62 NSCLC)
ClCc1ccc(Cn2cnc3c(Cl)ncnc32)cc1	7.3 µM	25.5 µM	16.5 µM	44.2 µM	13.6 µM	42	8.46 µM	20.5	11.5 µM	75.7 µM	19.7 µM	> 92.8 µM	> 28.1 µM	> 55.7 µM	13.6 µM	29.1 µM	18.2 µM	34.7 µM	11 µM	23.7 µM
O=c1c2ccccc2nc(-c2ccccc2Cl)n1-c1nnc(C(F)(F)F)s1	5.03 µM	> 100 µM	3.37 µM	> 100 µM	4.17 µM	> 100	3.01 µM	> 100	2.43 µM	8.25 µM	2.72 µM	6.27 µM	4.63 µM	90.9 µM	2.38 µM	9.3 µM	4.33 µM	43.8 µM	6.09 µM	29.7 µM
Nc1cc(C(F)(F)F)c(-c2cc(N3CCOCC3)nc(N3CCOCC3)n2)cn1	1.22 µM and 1.79 µM	9.96 µM and > 33.1 µM	1.67 µM and 1.55 µM	> 9.24 µM and 11.8 µM	0.227 µM and 0.28 µM	–	1.27 µM and 1.61 µM	> 100	0.504 µM and 0.29 µM	3.93 µM and 1.64 µM	0.678 µM and 0.385 µM	3.39 µM and 2.27 µM	0.555 µM and 0.536 µM	5.14 µM and 4.38 µM	0.313 µM and 0.522 µM	1.55 µM and 5.2 µM	0.692 µM and 0.848 µM	7.16 µM and 8.7 µM	0.385 µM and 0.793 µM	4.31 µM and 4.87 µM
O=C(CCl)Nc1cc(Cl)c(Cl)cc1Cl	–	7.06 µM	–	3.1 µM	–	3.3	–	2.96	–	2.02 µM	–	3.44 µM	–	4.04 µM	–	8.56 µM	–	3.72 µM	–	3.89 µM
Cc1ccc(NC(=O)Nc2c(Cl)cccc2Cl)cn1	16.2 µM	76.6 µM	19.4 µM	> 100 µM	8.14 µM	> 100	55.4 µM	> 100	12.5 µM	44 µM	5.87 µM	27.5 µM	58.2 µM	> 100 µM	1.94 µM	6.89 µM	72.9 µM	> 100 µM	8.33 µM	> 100 µM
C[C@H](CS)C(=O)N1c2ccccc2C[C@H]1C(=O)O	–	> 100 µM	–	> 100 µM	–	> 100	–	> 100	–	> 100 µM	–	> 100 µM	–	> 100 µM	–	> 100 µM	–	> 100 µM	–	> 100 µM
O=Cc1c(-c2ccccc2)[nH]c2ccccc2c1=O	–	> 100 µM	–	> 100 µM	–	> 100	–	> 100	–	> 100 µM	–	> 100 µM	–	> 100 µM	–	98.9 µM	–	> 100 µM	–	> 100 µM
C[C@@H](NC(=O)c1ncnc(N)c1Cl)c1ncc(C(=O)Nc2cc(C(F)(F)F)c(Cl)cn2)s1	26.7 µM	> 82.7 µM	15.1 µM	40.8 µM	10.8 µM	39.6	19.9 µM	> 93.7	13.5 µM	34.3 µM	2.08 µM	8.04 µM	0.696 µM	15.8 µM	23.4 µM	98.9 µM	5.88 µM	> 90.5 µM	24.3 µM	84.8 µM
C(=Nc1cnc2ccccc2c1)c1ccc2ccccc2n1	–	> 100 µM	–	> 100 µM	–	> 100	–	> 100	–	> 100 µM	–	> 100 µM	–	> 100 µM	–	> 100 µM	–	> 100 µM	–	> 100 µM
Clc1ccc2ncc(-c3cccc(NC4CNC4)n3)n2c1	4.58 µM	> 100 µM	3.92 µM	84.3 µM	4.57 µM	44.6	1.58 µM	> 100	6.13 µM	27.9 µM	13.5 µM	37.9 µM	13 µM	> 100 µM	3.91 µM	20.6 µM	6.45 µM	> 100 µM	5.98 µM	65.4 µM
O=C(O)c1c(Cl)c(Cl)c(Cl)c(Cl)c1C(=O)Nc1ccc2cn[nH]c2c1	–	> 100 µM	–	> 100 µM	–	> 100	–	> 100	–	> 100 µM	–	> 100 µM	–	> 100 µM	–	> 100 µM	–	> 100 µM	–	> 100 µM
O=C(Nc1ccccc1C(F)(F)F)c1ccc(NC2=C(Cl)C(=O)N(Cc3ccccc3)C2=O)cc1	34.2 µM	> 100 µM	28.7 µM	> 100 µM	19.3 µM	65.9	18.6 µM	> 100	40.3 µM	> 100 µM	40.6 µM	> 100 µM	> 100 µM	> 100 µM	43.6 µM	> 100 µM	58 µM	> 100 µM	21.5 µM	43.1 µM
Cc1nc(-c2cnc(NC(C)C)n(C)c2=O)ccc1Oc1ccnc(-c2cnn(C)c2)c1	33.2 µM	> 100 µM	21.3 µM	> 100 µM	15 µM	> 100	19.7 µM	> 100	5.77 µM	71.9 µM	12 µM	52.8 µM	14.2 µM	> 100 µM	12.2 µM	67.6 µM	19.4 µM	> 100 µM	12.7 µM	> 100 µM
CN(C)C=NC1CCC(C(C)(C)C)CC1 (centres undefined)	–	61.3 µM	–	28.9 µM	–	37.9	–	34.6	–	31.8 µM	–	35.4 µM	–	29.4 µM	–	42 µM	–	37.2 µM	–	32.3 µM
O=c1ccc(=O)n(-c2ccccc2)[nH]1	–	> 100 µM	–	> 100 µM	–	> 100	–	> 100	–	> 100 µM	–	> 100 µM	–	> 100 µM	–	> 100 µM	–	> 100 µM	–	> 100 µM
COc1ccc2nc(-c3ccccc3)cc(Nc3cccc(C(C)=O)c3)c2c1	13.2 µM	32.3 µM	2.23 µM	14.8 µM	20.6 µM	> 100	3.96 µM	17.9	31.6 µM	> 100 µM	38.8 µM	> 100 µM	12.4 µM	43.4 µM	10.5 µM	35.6 µM	13.1 µM	29.9 µM	2.08 µM	4.88 µM
O=C1c2cccnc2C(=O)c2c1c(C(=O)NCCn1ccnc1)c1ccccn21	3.09 µM	12.4 µM	2.48 µM	8.06 µM	3.27 µM	14.2	2.28 µM	7.28	1.82 µM	4.67 µM	2.82 µM	8.3 µM	4.66 µM	20.7 µM	5.26 µM	38.7 µM	4.1 µM	24.2 µM	1.28 µM	11.3 µM
O=C(COc1ccc(OCC(=O)N2C(=O)CN(c3ccccc3)C2=S)cc1)N1C(=O)CN(c2ccccc2)C1=S	> 25 µM	> 100 µM	> 25 µM	> 100 µM	29.3 µM	> 100	> 25 µM	> 100	> 25 µM	> 100 µM	> 25 µM	> 100 µM	> 25 µM	> 100 µM	> 25 µM	> 100 µM	> 25 µM	> 100 µM	> 25 µM	> 100 µM
CN(C)Cc1ccc(C(C)(C)C)cc1-c1cc(C(C)(C)C)ccc1CN(C)C	–	> 100 µM	–	> 100 µM	–	> 100	–	> 100	–	> 100 µM	–	> 100 µM	–	> 100 µM	–	> 100 µM	–	> 100 µM	–	> 100 µM
Cc1ccc(-c2nc(N3CCNCC3)c3oc(-c4ccccc4)nc3n2)cc1	1.74 µM	3.19 µM	1.95 µM	4.15 µM	1.87 µM	3.64	1.8 µM	3.3	1.64 µM	3.43 µM	2.64 µM	6.01 µM	1.91 µM	3.39 µM	2.53 µM	7.69 µM	1.68 µM	3.36 µM	1.96 µM	4.48 µM
COc1cc(/C=C/C(=O)/C=C/c2cc3ccc(Cl)cc3n(Cc3ccccc3)c2=O)ccc1O	1.87 µM	5.47 µM	0.497 µM	11.7 µM	1.74 µM	4.53	1.95 µM	5.01	1.67 µM	3.5 µM	1.92 µM	4.97 µM	1.85 µM	5.53 µM	3.79 µM	62 µM	2.65 µM	5.78 µM	2.75 µM	7.08 µM
C/C(=N\n1c(O)c(C#N)cc(C#N)c1=O)c1ccncc1	> 100 µM	> 100 µM	> 100 µM	> 100 µM	> 100 µM	> 100	> 100 µM	> 100	> 100 µM	> 100 µM	> 100 µM	> 100 µM	> 100 µM	> 100 µM	> 100 µM	> 100 µM	> 100 µM	> 100 µM	> 100 µM	> 100 µM
O=C1c2ccccc2C(=O)c2c1ccc1c(=O)n(-c3ccccc3C(F)(F)F)nnc21	3.19 µM	> 100 µM	2.49 µM	> 100 µM	1.33 µM	3.31	2.23 µM	28.9	1.81 µM	5.71 µM	2.64 µM	7.61 µM	5.79 µM	> 100 µM	3.04 µM	> 100 µM	2.19 µM	6.01 µM	1.28 µM	19.1 µM
COC(=O)C1(C)CC2C(C)(CCC3(C)C4=CC=C5C(=CC(=O)C(O)=C5C)C4(C)CCC23C)CC1O (centres undefined)	–	2.71 µM	–	2.38 µM	–	1.18	–	3.33	–	0.54 µM	–	2.94 µM	–	2.1 µM	–	14.4 µM	–	3.32 µM	–	3.51 µM
CCN(CC)CCC(CNc1ccnc2cc(Cl)ccc12)c1ccccc1 (centres undefined)	32.9 µM	> 100 µM	5.05 µM	20.5 µM	7.98 µM	55.7	16.3 µM	> 100	2.58 µM	11.7 µM	1.95 µM	4.06 µM	1.92 µM	3.45 µM	11.5 µM	43 µM	16.9 µM	73.3 µM	12.1 µM	48.9 µM
CCCCCC[C@@H](C)Nc1nc2ccccc2c2occc12	9.79 µM	21.5 µM	20.7 µM	> 100 µM	0.0871 µM	11.5	12.8 µM	25.4	1.83 µM	13.3 µM	1.32 µM	20.5 µM	18.5 µM	36.5 µM	16.5 µM	40.5 µM	14 µM	27.4 µM	14.8 µM	28 µM
